Experimental data reported in ChEMBL document CHEMBL4840322, “Synthesis and biological evaluation of novel coumarin derivatives in rhabdoviral clearance” (Eur J Med Chem, 2021).
The source made the active and inactive calls. The rule behind the calls is not given here.

Tests used:
[1] = system: Infectious hematopoietic necrosis virus; experiment: Inhibition of Infectious hematopoietic necrosis virus glycoprotein G assessed as antiviral activity at 25 uM measured by RT-qPCR method relative to control
[2] = system: Infectious hematopoietic necrosis virus; experiment: Antiviral activity against Infectious hematopoietic necrosis virus infected in Fathead minnow EPC cells assessed as inhibition of G protein expression measured after 72 hrs by RT-qPCR method; format: functional, organism-based
Sprivivirus cyprinus [3] = experiment: Antiviral activity against spring viremia of carp virus infected in Fat head minnow EPC cells assessed as inhibition of N protein gene expression by RT-qPCR method relative to control; format: functional, organism-based
[4] = Induction of apoptosis in Fathead minnow EPC cells assessed as viable cells measured after 72 hrs by Annexin V/PI staining based flowcytometry method (reference value: 94%); format: functional, Pimephales promelas
[5] = system: Infectious hematopoietic necrosis virus; experiment: Antiviral activity against Infectious hematopoietic necrosis virus infected in Rainbow trout fish assessed as decrease of mortality rate ip measured after 4 days; format: functional, organism-based; settings: time 4.0 day
[6] = system: Infectious hematopoietic necrosis virus; experiment: Antiviral activity against Infectious hematopoietic necrosis virus infected in Fathead minnow EPC cells assessed as decrease in virus-induced apoptosis by measuring formation of few apoptotic bodies in cells at 100 uM measured after 72 hrs by Flowcytometry assay; format: functional, organism-based
[7] = system: Infectious hematopoietic necrosis virus; experiment: Antiviral activity against Infectious hematopoietic necrosis virus infected in Fathead minnow EPC cells assessed as decrease in virus-induced apoptosis by measuring caspase-8 activity at 25 uM measured after 72 hrs by Caspase activity assay relative to control; format: functional; parameters: scale not given: the % may be the effect or the level left
[8] = system: Infectious hematopoietic necrosis virus; experiment: Antiviral activity against Infectious hematopoietic necrosis virus infected in Rainbow trout fish assessed as decrease of viral proliferation in fish brain ip measured after 4 days; format: functional, organism-based; settings: time 4.0 day
[9] = Induction of apoptosis in Fathead minnow EPC cells assessed as early apoptotic cells measured after 72 hrs by Annexin V/PI staining based flowcytometry method (reference value: 3.8%); format: functional, Pimephales promelas
[10] = system: Infectious hematopoietic necrosis virus; experiment: Antiviral activity against Infectious hematopoietic necrosis virus infected in Fathead minnow EPC cells assessed as decrease in virus-induced apoptosis by measuring viable cells measured after 72 hrs by Annexin V/PI staining based flowcytometry method (reference value: 94%); format: functional
[11] = system: Infectious hematopoietic necrosis virus; experiment: Antiviral activity against Infectious hematopoietic necrosis virus infected in Rainbow trout fish assessed as decrease of viral proliferation in fish spleen ip measured after 4 days; format: functional, organism-based; settings: time 4.0 day
[12] = system: Infectious hematopoietic necrosis virus; experiment: Antiviral activity against Infectious hematopoietic necrosis virus infected in Fathead minnow EPC cells assessed as decrease in virus-induced apoptosis by measuring necrotic cells measured after 72 hrs by Annexin V/PI staining based flowcytometry method (reference value: 0.29%); format: functional; parameters: scale not given: the % may be the effect or the level left
[13] = Cytotoxicity against Fathead minnow EPC cells at 25 uM; format: cell-based; settings: pimephales promelas
[14] = system: Infectious hematopoietic necrosis virus; experiment: Antiviral activity against Infectious hematopoietic necrosis virus infected in Fathead minnow EPC cells assessed as decrease in virus-induced apoptosis by measuring early apoptotic cells measured after 72 hrs by Annexin V/PI staining based flowcytometry method (reference value: 3.8%); format: functional; parameters: scale not given: the % may be the effect or the level left
Sprivivirus cyprinus [15] = experiment: Antiviral activity against spring viremia of carp virus infected in Fathead minnow EPC cells assessed as reduction of viral titre value measured after 48 to 96 hrs; format: functional, organism-based; settings: time 48-96 hrs
[16] = Induction of apoptosis in Fathead minnow EPC cells assessed as necrotic cells measured after 72 hrs by Annexin V/PI staining based flowcytometry method (reference value: 0.29%); format: functional, Pimephales promelas
[17] = system: Infectious hematopoietic necrosis virus; experiment: Antiviral activity against Infectious hematopoietic necrosis virus infected in Fathead minnow EPC cells assessed as decrease in virus-induced apoptosis by measuring caspase-9 activity at 25 uM measured after 72 hrs by Caspase activity assay relative to control; format: functional; parameters: scale not given: the % may be the effect or the level left
[18] = system: Infectious hematopoietic necrosis virus; experiment: Antiviral activity against Infectious hematopoietic necrosis virus infected in Fathead minnow EPC cells assessed as inhibition of phospho protein gene expression at 0.1 to 100 uM measured after 72 hrs by RT-qPCR method relative to control; format: functional; parameters: scale not given: the % may be the effect or the level left; settings: dose 0.1-100 µM
[19] = system: Infectious hematopoietic necrosis virus; experiment: Antiviral activity against Infectious hematopoietic necrosis virus infected in Fathead minnow EPC cells assessed as reduction of virus titre values at 0.25 to 25 uM measured after 72 to 96 hrs; format: functional, organism-based; settings: dose 0.25-25 µM, time 72-96 hrs
[20] = system: Infectious hematopoietic necrosis virus; experiment: Antiviral activity against Infectious hematopoietic necrosis virus infected in Fathead minnow EPC cells assessed as inhibition of polymerase protein gene expression at 0.1 to 100 uM measured after 72 hrs by RT-qPCR method relative to control; format: functional; parameters: scale not given: the % may be the effect or the level left; settings: dose 0.1-100 µM
[21] = system: Micropterus salmoides rhabdovirus; experiment: Antiviral activity against micropterus salmoides rhabdo-virus infected in Grass carp GCO cells assessed as reduction of viral titre value measured after 48 to 96 hrs; format: functional, organism-based; settings: time 48-96 hrs
[22] = system: Micropterus salmoides rhabdovirus; experiment: Antiviral activity against micropterus salmoides rhabdo-virus infected in Fat head minnow EPC cells assessed as inhibition of N protein gene expression by RT-qPCR method relative to control; format: functional, organism-based
[23] = system: Infectious hematopoietic necrosis virus; experiment: Antiviral activity against Infectious hematopoietic necrosis virus infected in Fathead minnow EPC cells assessed as decrease in virus-induced apoptosis by measuring changes in cell morphology at 10 uM measured by ultrastructural analysis; format: functional, organism-based
[24] = system: Infectious hematopoietic necrosis virus; experiment: Antiviral activity against Infectious hematopoietic necrosis virus infected in Fathead minnow EPC cells assessed as decrease in virus-induced apoptosis by measuring late apoptotic cells measured after 72 hrs by Annexin V/PI staining based flowcytometry method (reference value: 1.95%); format: functional; parameters: scale not given: the % may be the effect or the level left
[25] = system: Infectious hematopoietic necrosis virus; experiment: Antiviral activity against Infectious hematopoietic necrosis virus infected in Fathead minnow EPC cells assessed as inhibition of nucleoprotein gene expression at 0.1 to 100 uM measured after 72 hrs by RT-qPCR method relative to control; format: functional; parameters: scale not given: the % may be the effect or the level left; settings: dose 0.1-100 µM
[26] = Cytotoxicity against Grass carp GCO cells at 25 uM; format: cell-based; settings: ctenopharyngodon idellus
[27] = system: Infectious hematopoietic necrosis virus; experiment: Antiviral activity against Infectious hematopoietic necrosis virus infected in Fathead minnow EPC cells assessed as suppression of virus-induced cytopathic effect at 100 uM; format: functional, organism-based
Sprivivirus cyprinus [28] = experiment: Antiviral activity against spring viremia of carp virus infected in Fat head minnow EPC cells assessed as inhibition of N protein gene expression at 0.1 to 100 uM by RT-qPCR method relative to control; format: functional; parameters: scale not given: the % may be the effect or the level left; settings: dose 0.1-100 µM
[29] = system: Micropterus salmoides rhabdovirus; experiment: Antiviral activity against micropterus salmoides rhabd-ovirus infected in Fat head minnow EPC cells assessed as inhibition of N protein gene expression at 0.1 to 100 uM by RT-qPCR method relative to control; format: functional; parameters: scale not given: the % may be the effect or the level left; settings: dose 0.1-100 µM
[30] = system: Infectious hematopoietic necrosis virus; experiment: Antiviral activity against Infectious hematopoietic necrosis virus infected in Fathead minnow EPC cells assessed as decrease in virus-induced apoptosis by measuring appearance of normal sized nuclei in cells at 100 uM measured after 72 hrs by Flowcytometry assay; format: functional, organism-based
[31] = Induction of apoptosis in Fathead minnow EPC cells assessed as late apoptotic cells measured after 72 hrs by Annexin V/PI staining based flowcytometry method (reference value: 1.95%); format: functional, Pimephales promelas
[32] = system: Infectious hematopoietic necrosis virus; experiment: Antiviral activity against Infectious hematopoietic necrosis virus infected in Rainbow trout fish assessed as decrease of viral proliferation in fish kidney ip measured after 4 days; format: functional, organism-based; settings: time 4.0 day
[33] = system: Infectious hematopoietic necrosis virus; experiment: Antiviral activity against Infectious hematopoietic necrosis virus infected in Fathead minnow EPC cells assessed as inhibition of virus-cell recognition at 25 uM measured after 30 mins by RT-qPCR method; format: functional, organism-based
[34] = system: Infectious hematopoietic necrosis virus; experiment: Antiviral activity against Infectious hematopoietic necrosis virus infected in Fathead minnow EPC cells assessed as inhibition of matrix protein gene expression at 0.1 to 100 uM measured after 72 hrs by RT-qPCR method relative to control; format: functional; parameters: scale not given: the % may be the effect or the level left; settings: dose 0.1-100 µM
[35] = system: Infectious hematopoietic necrosis virus; experiment: Antiviral activity against Infectious hematopoietic necrosis virus infected in Fathead minnow EPC cells at 25 uM preincubated for 1 to 4 hrs followed by compound washout and infected to EPC cells and measured after 72 hrs by RT-qPCR assay; format: functional, organism-based; settings: time 1-4 hrs
[36] = system: Infectious hematopoietic necrosis virus; experiment: Antiviral activity against Infectious hematopoietic necrosis virus infected in Fathead minnow EPC cells assessed as decrease in virus-induced apoptosis by measuring caspase-3 activity at 25 uM measured after 72 hrs by Caspase activity assay relative to control; format: functional; parameters: scale not given: the % may be the effect or the level left

NC(=O)c1ncn([C@@H]2O[C@H](CO)[C@@H](O)[C@H]2O)n1
inhibition [1]: 99.1%

O=c1ccc2ccc(OCCCCn3cnc4ccccc43)cc2o1
inhibition [1]: 35.1%

Cc1cc(=O)oc2cc(OCCCCCCn3cnc4ccccc43)ccc12
inhibition [1]: 94.1%
IC50 [2]: 4.76 µM

COc1ccc2ccc(=O)oc2c1
inhibition [1]: 10.8%

C=C(C)COc1ccc2ccc(=O)oc2c1
inhibition [1]: 14%

C=C(C)COc1cc(=O)oc2ccccc12
inhibition [1]: 9.47%

Cc1cc(=O)oc2cc(OCCCCCCn3cncn3)ccc12
inhibition [1]: 25.2%

COc1cc(=O)oc2ccccc12
inhibition [1]: 19.5%

O=c1ccc2ccc(OCCBr)cc2o1
inhibition [1]: 0.13%

CCCCOc1ccc2c(C)cc(=O)oc2c1
inhibition [1]: -4.37%

O=c1ccc2ccc(OCCCCBr)cc2o1
inhibition [1]: 2.59%

CCCCOc1cc(=O)oc2ccccc12
inhibition [1]: 14.5%

Cc1cc(=O)oc2cc(OCCCCCCn3ccnc3)ccc12
inhibition [1]: 82.1%
IC50 [2]: 7.63 µM

CCCCOc1ccc2ccc(=O)oc2c1
inhibition [1]: 22%

C=CCOc1cc(=O)oc2ccccc12
inhibition [1]: 2.46%

CCCOc1cc(=O)oc2ccccc12
inhibition [1]: 9.48%

O=c1ccc2ccc(OCCCCCCN3CCCCC3)cc2o1
inhibition [1]: 5.32%

O=c1ccc2ccc(OCCCCCCn3cncn3)cc2o1
inhibition [1]: 39.2%

COc1ccc2c(C)cc(=O)oc2c1
inhibition [1]: 2.13%

O=c1ccc2ccc(OCCn3cnc4ccccc43)cc2o1
inhibition [1]: 5.58%

O=c1ccc2ccc(OCCCBr)cc2o1
inhibition [1]: -8.24%

O=c1ccc2ccc(OCCCn3cnc4ccccc43)cc2o1
inhibition [1]: 27.2%

Cc1cc(=O)oc2cc(OCCCCCCn3ccnc3C)ccc12
inhibition [1]: 89.5%
IC50 [2]: 6.34 µM

Cc1cc(=O)oc2cc(OCCCCCCBr)ccc12
inhibition [1]: -2.34%

CCCOc1ccc2c(C)cc(=O)oc2c1
inhibition [1]: -1.75%

Nc1ccccc1SCCCCCCOc1ccc2ccc(=O)oc2c1
inhibition [1]: 49.3%

O=c1ccc2ccc(OCCCCCCSc3cccc(O)c3)cc2o1
inhibition [1]: 13.8%

Cc1cn(CCCCCCOc2ccc3c(C)cc(=O)oc3c2)cn1
inhibition [1]: 65.1%

CCCOc1ccc2ccc(=O)oc2c1
inhibition [1]: 5.73%

C=CCOc1ccc2ccc(=O)oc2c1
inhibition [1]: -5.86%

O=c1ccc2ccc(OCCCCCCCCn3cnc4ccccc43)cc2o1
inhibition [1]: 46.1%

O=c1ccc2ccc(OCCCCCCn3cnc4ccccc43)cc2o1
IC50 (Sprivivirus cyprinus [3]): 1.68 µM
Activity [4]: 95.1%
Activity [5]: Active
Activity [6]: Active
Activity [7]: 98%
Activity [8]: Active
Activity [9]: 2.35%
Activity [10]: 93.7%
Activity [11]: Active
Activity [12]: 0.26%
Activity [13]: Non-Toxic
Activity [14]: 3.47%
inhibition [1]: 99.2%
IC50 [2]: 2.96 µM
Activity (Sprivivirus cyprinus [15]): Active
Activity [16]: 0.4%
Activity [17]: 50%
Activity [18]: >95%
Activity [19]: Active
Activity [20]: >95%
Activity [21]: Active
IC50 [22]: 2.12 µM
Activity [23]: Active
Activity [24]: 2.55%
Activity [25]: >95%
Activity [26]: Non-Toxic
Activity [27]: Active
Activity (Sprivivirus cyprinus [28]): 97.86%
Activity [29]: 99.08%
Activity [30]: Active
Activity [31]: 2.2%
Activity [32]: Active
Activity [33]: inactive
Activity [34]: >95%
Activity [35]: inactive
Activity [36]: 383%

C=C(C)COc1ccc2c(C)cc(=O)oc2c1
inhibition [1]: 9.37%
